Data from patent US20240109853A1 (Shanghai Yao Yuan Biotechnology Co., Ltd., priority 2020, published 2024).
pIC50: −log10 of the molar value.

Assays:
[1] = target: ALPK1 (Homo sapiens (Human), UniProt Q96QP1); test: ALPK1 in vitro kinase assay (HTRF of TIFA phosphorylation); assay type: biochemical
[2] = test system: ALPK1-dependent NFκB reporter gene activation in HEK293 cells stably expressing an NF-kB reporter (G9 cells); test: NFκB gene reporter alkaline phosphatase assay; assay type: cell-based; settings: Homo sapiens, HEK293; read-out: NFkB assay IC50
Procedure, shortened: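 Inhibition of ALPK1-driven NF-κB activation: compounds added to reporter-bearing HEK293 (G9) cells 30 min before the agonist D-glycero-D-manno-6-fluoro-heptose-1β-S-ADP. Secreted phosphatase detected by pNPP colorimetry, with IC50 derived by logistic curve fitting.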

ALPK1, sequence (Q96QP1 whole entry): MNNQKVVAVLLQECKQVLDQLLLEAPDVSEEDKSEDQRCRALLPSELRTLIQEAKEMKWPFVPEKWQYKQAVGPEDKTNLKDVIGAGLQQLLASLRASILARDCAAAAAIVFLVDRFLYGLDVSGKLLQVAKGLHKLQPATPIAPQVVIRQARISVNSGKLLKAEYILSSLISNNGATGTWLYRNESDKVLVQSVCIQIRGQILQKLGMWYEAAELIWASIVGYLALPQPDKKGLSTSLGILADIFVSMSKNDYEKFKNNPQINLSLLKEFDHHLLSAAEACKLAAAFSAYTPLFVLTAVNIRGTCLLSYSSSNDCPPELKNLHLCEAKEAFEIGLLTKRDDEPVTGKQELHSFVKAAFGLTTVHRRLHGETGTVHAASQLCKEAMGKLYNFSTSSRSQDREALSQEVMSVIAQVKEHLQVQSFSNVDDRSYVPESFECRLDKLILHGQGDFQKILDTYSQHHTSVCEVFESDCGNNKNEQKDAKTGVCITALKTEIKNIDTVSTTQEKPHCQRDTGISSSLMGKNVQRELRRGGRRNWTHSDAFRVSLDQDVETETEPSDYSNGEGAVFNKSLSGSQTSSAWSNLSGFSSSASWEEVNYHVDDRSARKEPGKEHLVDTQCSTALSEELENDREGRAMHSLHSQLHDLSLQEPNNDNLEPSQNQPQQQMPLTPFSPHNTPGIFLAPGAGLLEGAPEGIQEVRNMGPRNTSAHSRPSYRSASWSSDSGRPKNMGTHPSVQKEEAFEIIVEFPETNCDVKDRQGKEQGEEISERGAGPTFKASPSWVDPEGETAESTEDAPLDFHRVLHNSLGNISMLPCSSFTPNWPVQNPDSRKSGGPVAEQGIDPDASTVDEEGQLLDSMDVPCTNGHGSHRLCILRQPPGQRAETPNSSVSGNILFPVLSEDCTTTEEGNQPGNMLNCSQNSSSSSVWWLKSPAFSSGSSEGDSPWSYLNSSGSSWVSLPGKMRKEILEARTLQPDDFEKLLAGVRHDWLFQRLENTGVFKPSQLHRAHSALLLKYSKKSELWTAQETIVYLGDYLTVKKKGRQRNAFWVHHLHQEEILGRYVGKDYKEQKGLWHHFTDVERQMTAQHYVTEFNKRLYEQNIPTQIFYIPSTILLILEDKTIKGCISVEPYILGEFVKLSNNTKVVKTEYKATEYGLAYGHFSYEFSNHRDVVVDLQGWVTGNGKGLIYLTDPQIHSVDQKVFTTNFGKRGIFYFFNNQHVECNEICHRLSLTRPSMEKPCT

CC(C)(c1ccc(Br)cc1)c1csc(NC(=O)NCc2ccc(N3CCNCC3)c(F)c2)n1 [Example A050, 1-(4-(2-(4-bromophenyl)propan-2-yl)thiazol-2-yl)-3-(3-fluoro-4-(piperazin-1-yl)benzyl)urea]
pIC50 [1]: 7.59 | pIC50 [2]: 5.92

Cc1cc(N2CCNCC2)ccc1CNC(=O)Nc1nc(C(C)(C)c2ccc(Br)cc2)cs1 [Example A051, 1-(4-(2-(4-bromophenyl)propan-2-yl)thiazol-2-yl)-3-(2-methyl-4-(piperazin-1-yl)benzyl)urea]
pIC50 [1]: 6.90 | pIC50 [2]: 6.54

CC(C)(c1ccc(Br)cc1)c1csc(NC(=O)NCc2ccc(N3CCNCC3)c(C(N)=O)c2)n1 [Example A052, 5-((3-(4-(2-(4-bromophenyl)propan-2-yl)thiazol-2-yl)ureido)methyl)-2-(piperazin-1-yl)benzamide]
pIC50 [1]: 7.62 | pIC50 [2]: 5.71

COc1ccc(C(C)(C)c2csc(NC(=O)NCc3ccc(N4CCNCC4)cc3)n2)cc1 [Example A053, 1-(4-(2-(4-methoxyphenyl)propan-2-yl)thiazol-2-yl)-3-(4-(piperazin-1-yl)benzyl)urea]
pIC50 [1]: 7.37 | pIC50 [2]: 6.12

COc1ccc(C(C)(C)c2csc(NC(=O)NCc3ccc(N4CCNCC4)c(F)c3)n2)cc1 [Example A054, 1-(3-fluoro-4-(piperazin-1-yl)benzyl)-3-(4-(2-(4-methoxyphenyl)propan-2-yl)thiazol-2-yl)urea]
pIC50 [1]: 7.52 | pIC50 [2]: 6.06

COCCOc1cc(CNC(=O)Nc2nc(C(C)(C)c3ccc(Br)cc3)cs2)ccc1N1CCNCC1 [Example A055, 1-(4-(2-(4-bromophenyl)propan-2-yl)thiazol-2-yl)-3-(3-(2-methoxyethoxy)-4-(piperazin-1-yl)benzyl)urea]
pIC50 [1]: 6.74 | pIC50 [2]: 5.33

CC(O)(c1ccc(Br)cc1)c1csc(NC(=O)NCc2ccc(N3CCNCC3)c(F)c2)n1 (stereo not shown) [Example A056, 1-(4-(1-(4-bromophenyl)-1-hydroxyethyl)thiazol-2-yl)-3-(3-fluoro-4-(piperazin-1-yl)benzyl)urea]
pIC50 [1]: 6.75 | pIC50 [2]: 5.97

COc1ccc(C(C)(C)c2csc(NC(=O)NCc3ccc(N4CCNCC4)c(CO)c3)n2)cc1 [Example A058, 1-(3-(hydroxymethyl)-4-(piperazin-1-yl)benzyl)-3-(4-(2-(4-methoxyphenyl)propan-2-yl)thiazol-2-yl)urea]
pIC50 [1]: 6.89 | pIC50 [2]: 5.51

COc1ccc(C(C)(C)c2csc(NC(=O)NCc3ccc(N4CCNCC4)c(C(N)=O)c3)n2)cc1 [Example A060, 5-((3-(4-(2-(4-methoxyphenyl)propan-2-yl)thiazol-2-yl)ureido)methyl)-2-(piperazin-1-yl)benzamide]
pIC50 [1]: 8.10 | pIC50 [2]: 5.32

CC(C)(c1ccc(Br)cc1)c1csc(NC(=O)NCCCN)n1 [Example A061, 1-(3-aminopropyl)-3-(4-(2-(4-bromophenyl)propan-2-yl)thiazol-2-yl)urea]
pIC50 [1]: 6.71 | pIC50 [2]: 5.70

COc1ccc(C(C)(C)c2csc(NC(=O)NCc3ccc(N4CC5CC4CN5)cc3)n2)cc1 (stereo not shown) [Example A062, 1-(4-(2,5-diazabicyclo[2.2.1]heptan-2-yl)benzyl)-3-(4-(2-(4-methoxyphenyl)propan-2-yl)thiazol-2-yl)urea]
pIC50 [1]: 7.22 | pIC50 [2]: 5.88

COc1ccc(C(C)(C)c2csc(NC(=O)NCc3ccc(N4CCNC(C)C4)c(C(N)=O)c3)n2)cc1 (stereo not shown) [Example A063, 5-((3-(4-(2-(4-methoxyphenyl)propan-2-yl)thiazol-2-yl)ureido)methyl)-2-(3-methylpiperazin-1-yl)benzamide]
pIC50 [1]: 7.54 | pIC50 [2]: 5.54

COc1ccc(C(C)(C)c2csc(NC(=O)NCc3ccc(N4CC5CC4CN5)c(C(N)=O)c3)n2)cc1 (stereo not shown) [Example A064, 2-(2,5-diazabicyclo[2.2.1]heptan-2-yl)-5-((3-(4-(2-(4-methoxyphenyl)propan-2-yl)thiazol-2-yl)ureido)methyl)benza-mide]
pIC50 [1]: 7.39 | pIC50 [2]: 4.70

CNC(=O)c1cc(CNC(=O)Nc2nc(C(C)(C)c3ccc(OC)cc3)cs2)ccc1N1CCNCC1 [Example A065, 5-((3-(4-(2-(4-methoxyphenyl)propan-2-yl)thiazol-2-yl)ureido)methyl)-N-methyl-2-(piperazin-1-yl)benzamide]
pIC50 [1]: 7.52 | pIC50 [2]: 5.35

CC(C)(c1ccc(Br)cc1)c1csc(NC(=O)NCCS(C)(=O)=O)n1 [Example A066, 1-(4-(2-(4-bromophenyl)propan-2-yl)thiazol-2-yl)-3-(2-(methylsulfonyl)ethyl)urea]
pIC50 [1]: 6.90 | pIC50 [2]: 4.98

CC(C)(c1ccc(I)cc1)c1csc(NC(=O)NCc2ccc(N3CCNCC3)cc2)n1 [Example A067, 1-(4-(2-(4-iodophenyl)propan-2-yl)thiazol-2-yl)-3-(4-(piperazin-1-yl)benzyl)urea]
pIC50 [1]: 7.55 | pIC50 [2]: 5.95

COc1ccc(C(C)(C)c2csc(NC(=O)NCCCC(=O)NC3CCN(C)CC3)n2)cc1 [Example A070, 4-(3-(4-(2-(4-methoxyphenyl)propan-2-yl)thiazol-2-yl)ureido)-N-(1-methylpiperidin-4-yl)butanamide]
pIC50 [1]: 6.85 | pIC50 [2]: 4.77

COc1ccc(C(C)(C)c2csc(NC(=O)NCCOCCN3CCC(N)C3)n2)cc1 (stereo not shown) [Example A072, 1-(2-(2-(3-aminopyrrolidin-1-yl)ethoxy)ethyl)-3-(4-(2-(4-methoxyphenyl)propan-2-yl)thiazol-2-yl)urea]
pIC50 [1]: 6.84 | pIC50 [2]: 5.84

CC(NC(=O)Nc1nc(C(C)(C)c2ccc(Br)cc2)cs1)c1ccc(N2CCNCC2)cc1 (stereo not shown) [Example A073, 1-(4-(2-(4-bromophenyl)propan-2-yl)thiazol-2-yl)-3-(1-(4-(piperazin-1-yl)phenyl)ethyl)urea]
pIC50 [1]: 7.07 | pIC50 [2]: 5.55

Cc1ccc(C(C)(C)c2csc(NC(=O)NCc3ccc(N4CCNCC4)cc3)n2)cc1 [Example A075, 1-(4-(piperazin-1-yl)benzyl)-3-(4-(2-(p-tolyl)propan-2-yl)thiazol-2-yl)urea]
pIC50 [1]: 7.60 | pIC50 [2]: 6.57

CCC(C)(c1ccc(OC)cc1)c1csc(NC(=O)NC(C)c2ccc(N3CCNCC3)cc2)n1 (stereo not shown) [Example A076, 1-(4-(2-(4-methoxyphenyl)butan-2-yl)thiazol-2-yl)-3-(1-(4-(piperazin-1-yl)phenyl)ethyl)urea]
pIC50 [1]: 6.83 | pIC50 [2]: 5.35

COc1ccc(C(C)(C)c2csc(NC(=O)NCCCCN3CCC(N)C3)n2)cc1 (stereo not shown) [Example A077, 1-(4-(3-aminopyrrolidin-1-yl)butyl)-3-(4-(2-(4-methoxyphenyl)propan-2-yl)thiazol-2-yl)urea]
pIC50 [1]: 6.74 | pIC50 [2]: 5.53

CC(C)(c1ccc(Br)cc1)c1csc(NC(=O)NCc2cnc(N3CCC(O)C3)nc2)n1 (stereo not shown) [Example A079, 1-(4-(2-(4-bromophenyl)propan-2-yl)thiazol-2-yl)-3-((2-(3-hydroxypyrrolidin-1-yl)pyrimidin-5-yl)methyl)urea]
pIC50 [1]: 6.77 | pIC50 [2]: 5.77

COc1ncc(CNC(=O)Nc2nc(C(C)(C)c3ccc(Br)cc3)cs2)cn1 [Example A080, 1-(4-(2-(4-bromophenyl)propan-2-yl)thiazol-2-yl)-3-((2-methoxypyrimidin-5-yl)methyl)urea]
pIC50 [1]: 6.76 | pIC50 [2]: 4.88

CC(C)(c1ccc(Br)cc1)c1csc(NC(=O)NCc2cnc(NCCN)nc2)n1 [Example A081, 1-((2-((2-aminoethyl)amino)pyri-midin-5-yl)methyl)-3-(4-(2-(4-bromophenyl)propan-2-yl)thiazol-2-yl)urea]
pIC50 [1]: 7.77 | pIC50 [2]: 5.74

CC(C)(c1ccc(Br)cc1)c1csc(NC(=O)NCc2cnc(N3CCC(O)CC3)nc2)n1 [Example A082, 1-(4-(2-(4-bromophenyl)propan-2-yl)thiazol-2-yl)-3-((2-(4-hydroxypiperidin-1-yl)pyrimidin-5-yl)methyl)urea]
pIC50 [1]: 6.90 | pIC50 [2]: 5.21

COc1ccc(C(C)(C)c2csc(NC(=O)NCc3cnc(N4CCC(O)C4)nc3)n2)cc1 (stereo not shown) [Example A083, 1-((2-(3-hydroxypyrrolidin-1-yl)pyrimidin-5-yl)methyl)-3-(4-(2-(4-methoxyphenyl)propan-2-yl)thiazol-2-yl)urea]
pIC50 [1]: 6.95 | pIC50 [2]: 6.17

CC(C)(c1ccc(Cl)cc1)c1csc(NC(=O)NCc2cnc(N3CCNCC3)nc2)n1 [Example A084, 1-(4-(2-(4-chlorophenyl)propan-2-yl)thiazol-2-yl)-3-((2-(piperazin-1-yl)pyrimidin-5-yl)methyl)urea]
pIC50 [1]: 7.66 | pIC50 [2]: 6.47

CC(C)(c1ccc(F)cc1)c1csc(NC(=O)NCc2cnc(N3CCNCC3)nc2)n1 [Example A085, 1-(4-(2-(4-fluorophenyl)propan-2-yl)thiazol-2-yl)-3-((2-(piperazin-1-yl)pyrimidin-5-yl)methyl)urea]
pIC50 [1]: 7.07 | pIC50 [2]: 6.31

COc1ccc(C(C)(C)c2csc(NC(=O)NCc3cnc(N4CCNCC4)nc3)n2)cc1 [Example A086, 1-(4-(2-(4-methoxyphenyl)propan-2-yl)thiazol-2-yl)-3-((2-(piperazin-1-yl)pyrimidin-5-yl)methyl)urea]
pIC50 [1]: 7.80 | pIC50 [2]: 6.41

CCOc1ccc(C(C)(C)c2csc(NC(=O)NCc3cnc(N4CCNCC4)nc3)n2)cc1 [Example A087, 1-(4-(2-(4-ethoxyphenyl)propan-2-yl)thiazol-2-yl)-3-((2-(piperazin-1-yl)pyrimidin-5-yl)methyl)urea]
pIC50 [1]: 7.05 | pIC50 [2]: 5.76

CC(C)(c1ccc(Br)cc1)c1csc(NC(=O)NCc2cnc(N3CCNCC3)nc2)n1 [Example A088, 1-(4-(2-(4-bromophenyl)propan-2-yl)thiazol-2-yl)-3-((2-(piperazin-1-yl)pyrimidin-5-yl)methyl)urea compound with methane (1:1)]
pIC50 [1]: 7.89 | pIC50 [2]: 5.84
